According to PubChem BioAssay AID720589 (Broad Institute, 2013):
Activity calls are given as the source filed them.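 Rule for the calls: active = fitted curve drops below -35% activity at a concentration within twice the top valid tested dose; inconclusive = no clear call, values can overlap the other calls; inactive = signal rising instead of falling, among other cases.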

experiment: HepG2 hepatoma cell cytotoxicity, dose response, cytotoxicity control, CellTiter-Glo luminescence, cherry-pick, set 3 (AID 720589); conditions: HepG2 viability, ATP luminescence (CellTiter-Glo), 72 h; at 0.011 µM; stronger effect = lower value; 0% = untreated, negative = ATP loss

Structure (SMILES) | max activity
C/C=C/c1ccc([C@H]2[C@@H](CO)N3C(=O)CN(S(=O)(=O)c4cccc(F)c4)C[C@@H]23)cc1 | 26.3% (inactive)
CC(=O)N1CCCC(c2cc(C(=O)Nc3ccccc3)no2)C1 (stereo unspecified) | 15.4% (inactive)
COc1cc(C(c2c(C)[nH][nH]c2=O)c2c(C)[nH][nH]c2=O)ccc1OC(C)C | 22.1% (inactive)
N#Cc1cccc(-c2ccc(C3[C@@H]4CN(C(=O)Cc5ccncc5)C[C@H]3N4)cc2)c1 (stereo partly specified) | 21% (inactive)
O=C(CCCCl)Nc1nc(-c2ccc3c(c2)OCCO3)cs1 | -25% (inactive)
O=C1CCCC2=C1C(c1ccccn1)Nc1ccc(C(=O)c3ccccc3)cc1N2 (stereo unspecified) | 38.6% (inactive)
CC(C)(C)c1ccc(/C=N/Nc2ccc(C(=O)O)cc2)cc1 | 17.4% (inactive)
COc1cc(/C=N/NS(=O)(=O)c2ccc3ccccc3c2)ccc1OCc1ccc(C(=O)O)cc1 | 33.7% (inactive)
N/C(Cc1nc(-c2ccc(F)cc2)cs1)=N\O | 20.4% (inactive)
COC(=O)c1c(C)[nH]c(/C=N/Nc2ccccc2)c1C | -17.5% (inactive)
COc1ccc2oc(C(=O)NCCc3ccccc3)c(C)c2c1 | -16.8% (inactive)
CC(C)c1ccc(OCc2cccc(C(=O)N/N=C/c3cccnc3)c2)cc1 | 8.88% (inactive)
CCOc1ccc(-c2noc(CCC(=O)O)n2)cc1 | 7.93% (inactive)
CCN1CCN(/C=N/c2nc3c(s2)CCCC3)CC1 | -25.3% (inactive)
CCn1c(/C=N/NC(=O)c2ccc(OC)cc2)nc2ccccc21 | -35.2% (inactive)
CCN1C/C(=C/c2ccc(OC)c(O)c2)C(=O)/C(=C/c2ccc(OC)c(O)c2)C1 | -39.6% (inactive)
COc1ccc(NS(=O)(=O)c2cc(NC(=O)CNC(=O)c3cccc(OC)c3)ccc2C)cc1 | -35% (inactive)

same assay, conditions: HepG2 viability, ATP luminescence (CellTiter-Glo), 72 h; at 0.035 µM; stronger effect = lower value; 0% = untreated, negative = ATP loss

Structure (SMILES) | max activity
CC1(C)Oc2cc3oc(-c4cc(O)cc(O)c4)cc3cc2CC1O (stereo unspecified) | -28.3% (inactive)
COCCCNc1ccn2nc(-c3ccccc3)cc2n1 | -48% (inactive)
CN1c2ccc(-c3ccc(C#N)cc3)cc2[C@H]2[C@H](CCN2S(=O)(=O)c2cccc(F)c2)[C@H]1CO | -29.8% (inactive)
CCc1ccc(/C=C2\SC(=S)N(CCC(=O)Nc3cc(C)on3)C2=O)cc1 | -25.9% (inactive)
C/C(=N\OCc1cccc(C(=O)O)c1)c1ccc(Cl)cc1 | -7.45% (inactive)

same assay, conditions: HepG2 viability, ATP luminescence (CellTiter-Glo), 72 h; at 0.1 µM; stronger effect = lower value; 0% = untreated, negative = ATP loss

Structure (SMILES) | max activity
O=C(NCCc1ccccc1)c1ccccc1NC(=O)C1CCCO1 (stereo unspecified) | -10.9% (inactive)
CN(C)C(=O)c1cccc(-c2ccc(C3[C@@H]4CN(Cc5nccs5)C[C@H]3N4)cc2)c1 (stereo partly specified) | -30.3% (inactive)
O=C1Nc2ccccc2C1=Nc1ccc(Br)cc1 | -11.9% (inactive)
CCOC(=O)C1CCCCN1C(=O)CCc1c(C)nc2cc(-c3ccccc3)nn2c1C (stereo unspecified) | 21.3% (inactive)
COC(=O)C[C@@H]1CC[C@@H]2[C@H](COc3ccc(NC(=O)Nc4cccc(C#N)c4)cc3C(=O)N2C)O1 | 28.5% (inactive)
Cc1noc(C)c1C(=O)Nc1sccc1C(N)=O | -22.6% (inactive)
Cc1noc(C)c1NC(=O)Nc1ccc2c(c1)CC(=O)N([C@@H](C)CO)C[C@@H](C)[C@@H](CN(C)Cc1ccc(Cl)c(Cl)c1)O2 | 36.5% (inactive)
Cc1[nH]c(=S)sc1Cc1ccc(Cl)c(Cl)c1 | -20.8% (inactive)
C[C@H](CO)N1C[C@H](C)[C@H](CN(C)Cc2ccc(C(F)(F)F)cc2)Oc2c(NS(=O)(=O)c3ccc(Cl)cc3)cccc2C1=O | -20% (inactive)
O=C(O)c1ccc(N/N=C/c2cc(Br)cs2)cc1 | -24.3% (inactive)

same assay, conditions: HepG2 viability, ATP luminescence (CellTiter-Glo), 72 h; at 0.3 µM; stronger effect = lower value; 0% = untreated, negative = ATP loss

Structure (SMILES) | max activity
COc1cc(/C=C/C(=O)CC(=O)/C=C/c2ccc(O)c(OC)c2)ccc1O | -27.1% (inactive)
COC(=O)C[C@@H]1CC[C@@H]2[C@H](COc3ccc(NC(=O)c4cccc(F)c4)cc3C(=O)N2C)O1 | -26.8% (inactive)
COc1ccc(CN(C)c2ncnc3sccc23)c(OC)c1OC | -16.5% (inactive)
CC(C)CN(C(=O)CN1CCOCC1)c1c(N)n(CC(C)C)c(=O)[nH]c1=O | -39% (inactive)
Cc1cc(C(=O)Nc2ccc3c(c2)C(=O)N(C)[C@@H]2CC[C@@H](CC(=O)NCc4ccc(-c5ccccc5)cc4)O[C@H]2CO3)no1 | -28.4% (inactive)
COc1cc(/C=C/C(=O)/C=C(O)/C=C/c2ccc(O)c(OC)c2)ccc1O | -31.5% (inactive)
COCc1cc(C)nc2sc(C(=O)NCCO)c(-n3cccc3)c12 | 7.49% (inactive)
CCCc1cc(=O)oc2c3c(c4c(c12)OC(C)(C)C=C4)OC(C)C(C)C3O (stereo unspecified) | -25.9% (inactive)
N#C[C@H]1[C@H](c2ccc(-c3ccccc3F)cc2)[C@@H](CO)N1C(=O)Cc1ccccc1 | -22.2% (inactive)
Cc1ccc(Cc2c(-c3ccco3)nc3c(C)cc(Br)cn23)cc1 | -46.1% (inactive)

same assay, conditions: HepG2 viability, ATP luminescence (CellTiter-Glo), 72 h; at 0.8 µM; stronger effect = lower value; 0% = untreated, negative = ATP loss

Structure (SMILES) | max activity
Cc1ccc(S(=O)(=O)N(C)C[C@@H]2Oc3ccc(NC(=O)CCCCCC(=O)Nc4ccccc4N)cc3CC(=O)N([C@@H](C)CO)C[C@@H]2C)cc1 | -38.7% (inactive)

same assay, conditions: HepG2 viability, ATP luminescence (CellTiter-Glo), 72 h; at 0.9 µM; stronger effect = lower value; 0% = untreated, negative = ATP loss

Structure (SMILES) | max activity
CCc1ccc(/C=C2\SC(=S)N(CCCC(=O)Nc3cc(C)on3)C2=O)cc1 | -32.1% (inactive)
COC(=O)c1cccc(NC(=O)NC(=O)c2ccccc2Cl)c1 | -19.2% (inactive)
C[C@@H]1CN([C@@H](C)CO)C(=O)c2cccc(NC(=O)Nc3ccccc3)c2O[C@@H]1CN(C)Cc1ccc(-c2ccccc2)cc1 | -17% (inactive)
COc1ccc(/C=C2/SC(=S)N(CCCC(=O)Nc3ccccc3C(=O)O)C2=O)cc1 | -31.4% (inactive)

same assay, conditions: HepG2 viability, ATP luminescence (CellTiter-Glo), 72 h; at 2.6 µM; stronger effect = lower value; 0% = untreated, negative = ATP loss

Structure (SMILES) | max activity
COC(=O)C[C@@H]1CC[C@@H]2[C@H](COc3ccc(NC(=O)c4cccc(Cl)c4)cc3C(=O)N2C)O1 | -17.7% (inactive)

same assay, conditions: HepG2 viability, ATP luminescence (CellTiter-Glo), 72 h; at 2.85 µM; stronger effect = lower value

Structure (SMILES) | max activity
C[C@]12CC[C@H](O)C[C@H]1CC[C@@H]1C2CC[C@]2(C)[C@@H](C3=CC(=O)OC3)[C@@H](O)C[C@]12O (stereo partly specified) | -53.6% (inactive)

same assay, conditions: HepG2 viability, ATP luminescence (CellTiter-Glo), 72 h; at 2.85 µM; stronger effect = lower value; 0% = untreated, negative = ATP loss

Structure (SMILES) | max activity
Cc1ccccc1N=Nc1c(O)n(C)c2ccccc12 | -14.8% (inactive)
O=C(O)c1ccccc1C(=O)Nc1ccc(Oc2ccc3ccccc3c2)cc1 | -28.2% (inactive)
CCCCCCN(C(=O)CCCCCN1C(=O)NC(c2ccc(Cl)cc2)C(C(=O)OCc2ccccc2)=C1C)C(C(=O)NCCCC)c1ccc(OCC(=O)OC)c(C(=O)OC)c1 (stereo unspecified) | -30.9% (inactive)

same assay, conditions: HepG2 viability, ATP luminescence (CellTiter-Glo), 72 h; at 8 µM; stronger effect = lower value; 0% = untreated, negative = ATP loss

Structure (SMILES) | max activity
CN(C)c1ccc(-c2ccnc3c2CC(C)(C(=O)NCc2ccco2)O3)cc1 (stereo unspecified) | -25.6% (inactive)
COc1ccccc1NC(=O)N1[C@@H]2CNC[C@H]1[C@@H]2c1ccc(-c2ccc(C#N)cc2)cc1 | -24.4% (inactive)
Nc1nc2cc3c(cc2cc1C(=O)NCCc1c[nH]c2ccccc12)OCO3 | -32.5% (inactive)
CO[C@H]1CN(C)C(=O)c2cc(NC(=O)NC(C)C)ccc2OC[C@H](C)N(Cc2ccc(-c3ccccn3)cc2)C[C@@H]1C | -24.8% (inactive)
O=C(Cc1nn[nH]n1)c1ccccc1O | -19.1% (inactive)
CCN1CCS/C1=C\C=C\C1=[N+](CC)CCS1 | -37.7% (inactive)
N#CC1=C(N)Oc2cc(N)ccc2C1c1cccc(F)c1 (stereo unspecified) | -30% (inactive)
COC(=O)C[C@@H]1CC[C@@H]2[C@H](COc3ccc(NC(=O)c4ccccc4)cc3C(=O)N2C)O1 | -19.1% (inactive)

same assay, conditions: HepG2 viability, ATP luminescence (CellTiter-Glo), 72 h; at 26 µM; stronger effect = lower value; 0% = untreated, negative = ATP loss

Structure (SMILES) | max activity
COc1ccc(-c2sc3ccccc3c2-c2ccc(OCCN3CCCCC3)cc2)cc1 | -22.5% (inactive)
Cc1ccc(/C=N/Nc2ccc3ccccc3n2)o1 | -46.4% (inactive)
O=C(CCCN1C(=O)/C(=C/c2ccccc2Cl)SC1=S)NNC(=O)c1ccc(Cl)cc1 | 22.9% (inactive)
COC(=O)CC1(C(=O)OC)Oc2ccc(Br)cc2C(=O)N1c1cccc(Cl)c1Cl (stereo unspecified) | -23% (inactive)
COC(=O)Cc1[nH]n(-c2nc3ccccc3s2)c(=O)c1C(C)=Nc1ccc(OC)cc1 | -20.2% (inactive)
COc1cccc(CN2CCC2(C)C(=O)Nc2cccc3cccnc23)c1F (stereo unspecified) | -24% (inactive)
O=c1[nH]c(=O)n(C2C[C@H](O)[C@@H](CO)O2)cc1C(F)(F)F (stereo partly specified) | -30.8% (inactive)
O=C(O)c1cccc(N/N=C/c2cccs2)c1 | -13.2% (inactive)
C#CCOCCOCCOCCNc1nc(N2CCN(C(=O)CCCCCCCCCCNC(=O)Cn3cc(C[C@@H](C)O)nn3)CC2)nc(N2CCN(C(=O)CCCCCCCCCCNC(=O)[C@H](CO)n3cc(CCCSC)nn3)CC2)n1 | 39.2% (inactive)
CCN(CC)c1ccc(C2NC(=O)c3ccccc3N2)cc1 (stereo unspecified) | -26.4% (inactive)
COc1ccc(C2=NNC(=Nc3cc(S(=O)(=O)N(C)C)ccc3C)SC2)c(OC)c1 | -17.3% (inactive)
CCOc1ccc(N=Nc2ccc(O)c3ncccc23)cc1 | -26.7% (inactive)
COc1ccc(-c2ccc3c(c2)[C@H]2[C@H](CCN2S(=O)(=O)c2ccc(OC)cc2)[C@@H](CO)N3C)cc1 | -27% (inactive)
CC1=NN(c2ccc(C)cc2)C(=O)/C1=C\C=C\c1ccccc1 | -23.5% (inactive)
CC1=NN(c2ccccc2)C(=O)/C1=C\C=C\c1ccccc1 | -54.8% (inactive)
COc1ccc(C(=O)CN2C(=O)c3ccccc3S2(=O)=O)cc1 | 10.2% (inactive)
